Reference: article PMC10619691, “Effect of cyclic substituents on the anti-cancer activity and DNA interaction of ruthenium(II) bis-phenanthroline dipyridoquinoline” (Frontiers in Molecular Biosciences, 2023)

Assays:
A2780 ovarian cancer = assay: sulphorhodamine B (SRB) cytotoxicity assay; format: cell-based, human; conditions: SRB assay, 72 h incubation; mean ± SEM
Description: (§1) The cytotoxicity profile of the ruthenium complexes […]-572, and POW-12A was assessed in various cancer cell lines, namely, human cervical cancer HeLa, prostate cancer cell line DU145, breast cancer cell line MDAMB231MB231, ovarian cancer cell line A2780, and cisplatin-resistant ovarian cancer cell line A2780-CP70, using the preferred screen of the National Cancer Institute, the sulphorhodamine (SRB) dye assay, and the trypan blue cell viability assay ([Skehan et al., 1990]; [Houghton et al., 2007]; [Strober, 2001]). To determine their selective toxicity profile, these complexes were also tested in a normal prostate cell line (PTN1A). From the similarity in chemical structures of the compounds, we deduced that a structure-activity relationship study will help elucidate key properties involved in the cytotoxic activity of this class of metal complexes. The sulphorhodamine B (SRB) assay was used to evaluate the cytotoxicity of each cancer line after treating them with the metal complexes in line with the previously established protocol ([Skehan et al., 1990]). A cell density of 3 × 10^4 cells/mL was treated with various concentrations (3, 10, 30, 50, and 100 μM) of each ruthenium complex by 1:200 dilutions of stock solutions (in DMSO) in culture media, using DMSO as a control. Then, 100 μL of the cell-drug suspension was added to the respective wells of a 96-well plate and incubated at 37°C for 72 h in a CO2-containing incubator. Following this, the cells were fixed using 25 ul of Carnoy's solution and left in the fridge (4°C) for 1 h. The plates were then rinsed with running water and tapped on paper to remove dead cells. The cells were then stained with 100 μL of sulphorhodamine B dye and left for 30 min, after which the dye was washed off using 1% acetic acid, and the plate was left to dry in the oven (60°C). The stained cells were then treated with 100 μL of Tris base (10 mM, pH 10) to solubilize the dye stain. Finally, the plates were analyzed using an Omega plate reader. Each assay was conducted in triplicate. % Cell response=Average of treated cells / Average of control cells x 100.

[1] = test system: A280-CP70 cisplatin-resistant ovarian cancer; assay: sulphorhodamine B (SRB) cytotoxicity assay; format: cell-based, human; conditions: for IC50: SRB assay, 72 h incubation, mean ± SEM
Description: as §1

DU145 prostate cancer = assay: sulphorhodamine B (SRB) cytotoxicity assay; format: cell-based, human; conditions: 72 h incubation, mean ± SEM
Description: as §1

HeLa cervical cancer = assay: sulphorhodamine B (SRB) cytotoxicity assay; format: cell-based, human; conditions: 72 h incubation, mean ± SEM
Description: as §1

MDA-MB-231 (TNBC) = assay: sulphorhodamine B (SRB) cytotoxicity assay; format: cell-based, human; conditions: 72 h incubation, mean ± SEM
Description: as §1

PNT1A normal prostate = assay: sulphorhodamine B (SRB) cytotoxicity assay; format: cell-based, human; conditions: SRB assay, 72 h incubation; mean ± SEM
Description: as §1

DU145 cells = assay: cell cycle analysis; format: cell-based, human; conditions: DU145, after 72 h; control 1%
Description: (§2) The cell cycle of cervical HeLa and prostate DU145 cancer cells was studied after treatment with VNK-572 and cisplatin, respectively (Figure 3). VNK-572 and cisplatin both reduced the G2 population after 72 h compared to control (e.g., 16%–11% in Hela (p = 0.06) and from 17% to 2% in the DU145 cell line (p = 0.003) for VNK-572) (Figure 3A). […] The DU145 cells saw a decrease in both phases following 72 h of treatment—from 68% to 40% and from 11% to 5% for the G1 and S phases, respectively (Figure 3A).

HeLa cells [2] = assay: cell cycle analysis; format: cell-based, human
Description: as §2

HeLa cells [3] = assay: Annexin V apoptosis assay; format: cell-based, human
Description: To further analyze the cytotoxicity mechanisms, annexin V was used to determine whether VNK-572/cisplatin exerts an anti-cancer activity through apoptosis. The Annexin V assay was performed following the established procedure. The steps included treating the cells with the complex for 24, 48, and 72 h in 6-well plates and incubating at 37°C. The cells were then rinsed with PBS, trypsinized, and neutralized using culture media. The cells were then spun in the centrifuge at 2500 RPM for 3 min, and the supernatant was discarded. The cell pellet was then washed first with PBS and then with ×1 binding buffer. The cells were then suspended in approximately 1 mL of binding buffer (1–5 million cells), and approximately 100 ul of this suspension was stained with 5 μL of annexin V-APC dye for 15 min. The cells were then washed with binding buffer and resuspended in 200 μL of binding buffer before being stained with 5 ul of propidium iodide. The cells were then analyzed using a flow cytometer within 4 h.

various cell lines = assay: epi-fluorescence nuclear staining (nuclear morphology); format: cell-based; conditions: 72 h treatment, DAPI staining; cisplatin at 5 μM
Description: To assess the nuclear morphological changes caused by ruthenium complexes on the cell lines, the cells were stained using 4′,6-diamidino-2-phenylindole DAPI dye and analyzed under an EVOS epi-fluorescence microscope at a magnification of ×60 ([Lewandowska et al., 2013]). The protocol involves treating the cells with the complexes, culturing them in 6-well plates, and incubating them at 37°C for 72 h. The cells were then rinsed with PBS, trypsinized, and neutralized using culture media. The cells were then spun in a centrifuge at 2500 RPM for 3 min, and the supernatant was discarded. The cell pellet was then fixed with 15 μL of Carnoy’s solution, resuspended, and spread on a microscope slide. When the cells were dried, 2–3 drops of DAPI were dropped on the smear in the dark and covered with a slip. The slides were then viewed under the epi-fluorescence microscope, and the nuclei were characterized qualitatively. A total of 30 cells per slide were counted, and the number of cells with various nuclear morphologies was recorded. Cells were then classed as normal, chromatin-condensed, swollen, nuclear-condensed, and nuclear-fragmented cells based on their nuclear morphology.

[4] = partition coefficient (log P), shake-flask method; format: physicochemical; conditions: phosphate buffered saline (pH 7.4) / 1-octanol
Description: The role of lipophilicity in the activity of ruthenium (II) polypyridyl complexes is one that has been extensively reported ([Notaro and Gasser, 2017]). […] Based on this, we carried out a partition coefficient (log P) test using a shake-flask method to determine whether the marginal structural differences between VNK-754, VNK-572, and POW-12A affect their lipophilicity and to examine whether such a difference in lipophilicity confers any advantage to their anti-cancer activity. The log P results, as presented in Table 2, clearly show VNK-572 (0.014) and POW-12A (0.077) to be more lipophilic than VNK-754 (−0.874). […] Thus, along with varied DNA intercalating properties, this explains, in part, why there are appreciable differences in the cytotoxic effects of VNK572 and POW12A compared to VNK-754, even though they are generally similar in structure. For example, VNK-572 with an additional benzene ring can penetrate the bi-lipid-layered cell membrane better and achieve higher cellular and nuclear concentrations than VNK-754, producing a greater anti-tumor effect.
To study the lipophilicity of our complexes, we used the shake-flask method at 25.0 °C ± 0.1°C in line with the previously reported protocol ([Dubey et al., 2017]). Equal volumes of the aqueous phase (phosphate buffered saline, pH 7.4) and the 1-octanol phase were pre-saturated with each other overnight. A known amount of the complexes (respectively) was added to the aqueous phase, ensuring our final concentration was within the range of UV spectroscopic analysis; then, an equal volume of the pre-saturated […] phase was added. Both phases were then mixed in a conical flask and left shaking on a thermostatic shaker at a speed of 100 rpm overnight at room temperature. […] Considering that lipophilic compounds will partition into the octanol phase, the concentration of the complexes left in the aqueous phase was analyzed, respectively, by UV spectroscopy; then, the Log P value was calculated: Logp = Log10 ([solute] un-ionized octanol/[solute] un-ionized water).

HeLa cells [5] = assay: cellular localization by confocal fluorescence microscopy; format: cell-based, human; conditions: 50 μM, 2 h incubation, co-localization with DAPI
Description: This was further confirmed by the co-localization of these complexes with a nuclear counterstain (DAPI) (Figure 2).
Fluorescence microscopy was used to study cellular localization. HeLa cells were seeded on autoclaved coverslips in the 6-well plate and incubated at 37°C for 48 h, after which the culture media were replaced with media containing VNK-572 (50 μM) and VNK-754 (50 μM), respectively, and further incubation was performed for 2 h. Following this, the cells were fixed with Carnoy’s solution and washed twice with PBS thereafter. Finally, the HeLa cells were counterstained with DAPI, and the seeded coverslips were inverted and placed on slides for examination. A Leica confocal microscope was used for the observation of the samples using a magnification of ×63.

[6] = test system: RF I φX174 supercoiled circular DNA; assay: supercoiled DNA unwinding by atomic force microscopy; format: binding; conditions: AFM; P/D = 14 for POW-12A and VNK-572, P/D = 5 for VNK-754
Description: FIGURE 7 AFM height images RF I φX174 on a magnesium-soaked mica surface over an area of 2 µm. Samples with the ruthenium complex had solution mixing ratios of P/D = 14 for POW-12A and VNK-572; and of P/D = 5 VNK-754.
Samples for atomic force microscopy (AFM) were prepared on mica crystals cut into squares of approximately 1 cm^2. These squares were stuck with double-sided tape to a 15-mm diameter metal disc. Before sample preparation, Cellotape was used to remove the top layer of the mica crystal, giving a freshly cleaved surface layer on which the sample is to be deposited. Mica was soaked in a 0.1 M solution of MgCl2 for 5 min and blown dry, and Mg^2+ was used to help DNA (negatively charged) adhere to the negatively charged surface of the mica. For solutions containing DNA and POW-12A or VNK-572, a P/D value of 14 was used. For the solution containing DNA and VNK-754, a P/D value of 5 was used. Then, 2 μL of the solution was pipetted onto the mica surface and left for 10 min until the solvent had evaporated, leaving the DNA adhered to the surface. To remove excess salt, each sample was washed three times with 10 µL nanopure water, drying with nitrogen after each wash. AFM was conducted using a Bruker Multi-mode 2 atomic force microscope operated with a NanoScope V controller. ScanAsyst-AIR AFM tips were purchased from Bruker. Scans were run in tapping mode using ScanAsyst, measuring height, peak force error, and phase. The spring constant was adjusted to the spring constant of the tip, which is 0.4 N m^−1 for ScanAsyst-AIR tips; feedback parameters were set automatically by ScanAsyst Auto. Scans were run over 2 μm^2 areas with 512 lines. Images were prepared using NanoScope analysis software. Raw data were processed using first-order flattening and third-order plane fitting. If the background required smoothening due to large molecules on the surface, first-order flattening with a threshold of Z < 0.05 nm was used to improve the appearance of the background. […]

Structure (SMILES)	IC50 (A2780 ovarian cancer) [µM]	IC50 [1] [µM]	resistance factor (IC50 A2780-CP70/IC50 A2780) ([1]; from SRB IC50 values)	IC50 (DU145 prostate cancer) [µM]	IC50 (HeLa cervical cancer) [µM]	IC50 (MDA-MB-231 (TNBC)) [µM]	IC50 (PNT1A normal prostate) [µM]	sub-G1 population (DU145 cells) [%]	changes in G1 / S phases (HeLa cells [2])	sub-G1 population (HeLa cells [2]; 72 h of treatment, control 5% (VNK-572), 6% (cisplatin)) [%]	Q2 (propidium iodide and annexin V APC-stained cells), late-stage apoptosis (HeLa cells [3]; 72 h of treatment, control 2%) [%]	Q4 (annexin V APC), early apoptosis (HeLa cells [3]; 72 h of treatment, control 14% (VNK-572), 13% (cisplatin)) [%]	Q1 (necrosis) (HeLa cells [3]; after 72 h of treatment) [%]	nuclear morphology (various cell lines)	LogP [4]	cellular localization (HeLa cells [5])	unwinding of supercoiled circular DNA [6]
N.N.[Cl][Pt][Cl] [Cisplatin, cisplatin, reference compound]	2	4 ± 0.58	two-fold	2.4 ± 0.09	6 ± 0.58	37 ± 8.08	3.8 ± 0.58	62	increase in S-phase arrest	25	9	39	< 6	nuclear swelling	–	–	–
F[P-](F)(F)(F)(F)F.F[P-](F)(F)(F)(F)F.[Ru+2].c1cnc2c(c1)c1cccnc1c1ncccc21.c1cnc2c(c1)ccc1cccnc12.c1cnc2c(c1)ccc1cccnc12 [VNK-754, ruthenium (II) bis-phenanthroline dipyridoquinoline]	74 ± 14.4	> 100	–	> 100	> 100	> 100	> 100	–	–	–	–	–	–	–	−0.874	penetrate the nucleus	unwound
